Laboratory results from patent US11331290B2, “Niclosamide for the treatment of cancer metastasis” (Max-Delbrück-Centrum für Molekulare Medizin in der …, priority 2011, dated 2022).

Molecular target: T1, CTNNB1/TCF complex (Homo sapiens, UniProt P35222, DEL45-45)
T1 construct: endogenous in cells; host or cells: HCT116 nuclear extract
T1 sequence (P35222 1-781): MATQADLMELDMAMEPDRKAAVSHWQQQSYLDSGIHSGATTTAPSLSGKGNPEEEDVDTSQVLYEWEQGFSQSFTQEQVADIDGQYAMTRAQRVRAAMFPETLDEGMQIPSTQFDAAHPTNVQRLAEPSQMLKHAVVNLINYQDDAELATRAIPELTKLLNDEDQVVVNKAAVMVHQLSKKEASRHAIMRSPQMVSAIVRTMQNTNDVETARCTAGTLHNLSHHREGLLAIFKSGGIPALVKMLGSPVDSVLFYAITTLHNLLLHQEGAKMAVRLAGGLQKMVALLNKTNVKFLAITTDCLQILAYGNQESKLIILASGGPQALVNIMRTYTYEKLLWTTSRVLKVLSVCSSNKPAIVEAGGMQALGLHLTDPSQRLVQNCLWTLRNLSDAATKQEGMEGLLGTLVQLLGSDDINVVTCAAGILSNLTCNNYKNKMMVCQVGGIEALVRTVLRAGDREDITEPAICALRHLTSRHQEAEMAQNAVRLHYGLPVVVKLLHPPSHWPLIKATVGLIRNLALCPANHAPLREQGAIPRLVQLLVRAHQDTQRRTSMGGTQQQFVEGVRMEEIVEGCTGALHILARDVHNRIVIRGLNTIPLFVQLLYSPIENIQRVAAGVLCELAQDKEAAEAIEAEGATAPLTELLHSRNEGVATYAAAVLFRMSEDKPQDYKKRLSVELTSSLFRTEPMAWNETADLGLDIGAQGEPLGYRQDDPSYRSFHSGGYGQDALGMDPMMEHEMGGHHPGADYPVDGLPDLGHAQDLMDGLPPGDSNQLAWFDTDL
T1 sequence (P35222 with tags, fused parts or gaps DEL45-45): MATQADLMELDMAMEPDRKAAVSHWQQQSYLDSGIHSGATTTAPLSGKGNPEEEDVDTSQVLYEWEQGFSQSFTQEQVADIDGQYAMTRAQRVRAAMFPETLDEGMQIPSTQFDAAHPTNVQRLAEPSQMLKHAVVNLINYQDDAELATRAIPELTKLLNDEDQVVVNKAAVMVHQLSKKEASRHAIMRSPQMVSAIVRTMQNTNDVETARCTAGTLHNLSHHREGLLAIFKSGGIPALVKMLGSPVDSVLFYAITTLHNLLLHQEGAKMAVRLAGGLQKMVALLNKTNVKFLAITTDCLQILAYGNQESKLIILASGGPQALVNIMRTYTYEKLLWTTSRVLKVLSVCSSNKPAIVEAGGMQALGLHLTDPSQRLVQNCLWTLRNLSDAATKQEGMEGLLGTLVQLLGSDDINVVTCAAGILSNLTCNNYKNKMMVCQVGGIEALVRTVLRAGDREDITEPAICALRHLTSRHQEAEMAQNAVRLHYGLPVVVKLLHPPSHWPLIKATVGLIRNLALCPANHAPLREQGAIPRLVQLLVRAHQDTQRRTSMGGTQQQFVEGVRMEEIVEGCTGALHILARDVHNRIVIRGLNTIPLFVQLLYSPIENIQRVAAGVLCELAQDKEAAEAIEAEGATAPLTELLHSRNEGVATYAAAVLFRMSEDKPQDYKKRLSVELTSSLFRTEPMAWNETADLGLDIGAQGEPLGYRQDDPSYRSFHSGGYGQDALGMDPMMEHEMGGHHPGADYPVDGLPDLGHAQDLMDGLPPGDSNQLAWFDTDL
Experiment: Electrophoretic mobility shift assay (EMSA), TCF-binding site of the S100A4 promoter
Type: cell-based
Experimental: Electrophoretic mobility shift assay (EMSA) was performed as described earlier (4). 5×10^6 HCT116 cells were plated into a 10 cm culture dish and were given 15 hour to attach to the bottom of the dish. Cells were treated with 0.1, 0.3, 0.6 or 1 μM niclosamide or the respective amount of DMSO for 24 hours. For each condition 5 μg nuclear extracted protein was incubated 30 minutes at room temperature with 0.05% w/v poly dI⋅dC, 0.5 mM Tris, 0.05 mM EDTA, 2.5% v/v glycerol, 0.2% v/v NP-40, 5 mM MgCl2 and double-stranded biotinylated oligonucleotides (sense 5′-[…]-3′, antisense 3′-[…] T-5′) encompassing the TCF-binding site of the S100A4 promoter. For supershift 1.25 μg monoclonal CTNNB1 antibody (BD Biosciences) was added. […]
For WNT pathway analysis the following cells were applied: HCT116 cells (heterozygous for gain-of-function-mutated CTNNB1; wt/mut), HAB-68mut cells (deletion mutant of HCT116, expressing only gain-of-function-mutated CTNNB1: −/mut) and HAB-92 wt cells (deletion mutant of HCT116, expressing only wild-type CTNNB1: wt/−). […] Reporter gene expression was determined by luciferase activity measurement. […] S100A4 expression was analyzed by qRT-PCR and immunoblot. […] Cells were treated with 1 μM niclosamide for 24 hours and cell migration was determined by Boyden chamber assay. […] Differences were analyzed by Student's t test (n.s.; not statistically significant). […]

SMILES: O=C(Nc1ccc([N+](=O)[O-])cc1Cl)c1cc(Cl)ccc1O [niclosamide, 2′,5-dichloro-4′-nitrosalicylanilide]
- supershift with monoclonal anti-CTNNB1 (nuclear extracts from 1 μM niclosamide-treated HCT116 cells): No supershift could be detected
- CTNNB1/TCF/oligo complex (nuclear extracts of HCT116 cells, increasing concentrations (0.1, 0.3, 0.6 or 1 μM)): interrupted the CTNNB1/TCF/oligo complex in a concentration-dependent manner
